Experimental data published in patent US8809541B2, “Heterocyclic compound, and composition for treating inflammatory diseases using same” (Neopharm Co., Ltd., priority 2010, dated 2014).

What was measured:
nude mice (SKH-1) [1] = experiment: Oxazolone chronic dermatitis animal model; type: in vivo; conditions: compared with the control group
Procedure: Efficacy of a selected material was evaluated by using a chronic dermatitis animal model. An animal model of which chronic dermatitis was induced by continuously applying oxaozolone, which is a kind of hapten, to the nude mice was used. […] In order to construct a chronic dermatitis animal model, 5% of oxazolone was applied to 6-week nude mice (SKH-1) and thus sensitized, and 0.1% of oxazolone was applied once every two days from a week after, resulting in inducing dermatitis symptom. The sample was applied to an animal after induction at an interval of once a day for three days, and various dermal functions and skin thickness change were observed. Finally, skin biopsy was conducted and histological observation was conducted.
As a positive control group used in the experiment, 0.05% of desonide, which is relatively low potency steroid, was used, and the transepidermal water loss, the moisture content in the stratum corneum, and skin thickness change were observed.

PAR-2 [2] = target: T1, PAR-2 (Homo sapiens, UniProt P55085); experiment: Confocal microscopy of PAR-2 activation in KNRK-PAR-2 cell line; type: cell-based; parameters: expressed in transfected cells; host or cells: KNRK (Kirsten Murine Sarcoma Virus transformed rat kidney epithelial cells); conditions: [Compound 98]=200 μM, [trypsin]=1 μM, [SLIGKV]=100 μM, KNRK-PAR-2 cells
T1 sequence (P55085 26-397): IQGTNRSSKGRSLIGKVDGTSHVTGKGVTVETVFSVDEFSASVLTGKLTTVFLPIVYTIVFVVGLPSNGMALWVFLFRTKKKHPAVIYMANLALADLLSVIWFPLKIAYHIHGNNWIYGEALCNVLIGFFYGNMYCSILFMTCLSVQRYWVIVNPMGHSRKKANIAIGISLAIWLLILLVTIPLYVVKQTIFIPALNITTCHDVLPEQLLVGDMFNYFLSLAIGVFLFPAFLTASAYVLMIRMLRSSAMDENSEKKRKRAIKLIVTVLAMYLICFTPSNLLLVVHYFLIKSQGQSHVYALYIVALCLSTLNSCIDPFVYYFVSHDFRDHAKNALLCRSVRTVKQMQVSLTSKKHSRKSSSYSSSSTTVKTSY
Procedure: In order to visually confirm activation of PAR-2, a cell line having the following structure was prepared referring to the existing reference documents, and activation of PAR-2 was observed by using a confocal microscopy. As a cell line, Kirsten Murine Sarcoma Virus transformed rat kidney epithelial cell (KNRK cell) was used, which is a cell line where, normally, PAR-2 is not expressed. In the KNRK cell, flag epitope was tagged to an N-terminal and Myc epitope was tagged to a C-terminal, so that a stable transfected cell was constructed. Flag and Myc of the thus prepared KNRK-PAR-2 cell line were subjected to double staining, and activation or non-activation of PAR-2 was observed by using the confocal microscopy ([trypsin]=1 μM, [SLIGKV(AP)]=100 μM). When the PAR-2 was not activated, Flag and Myc were double-stained and thus appears yellow in the merged image. However, when the PAR-2 was activated, Flag was separated away and thus a red image was shown.

PAR-2 [3] = target: T1, PAR-2; experiment: PathHunter β-arrestin GPCR assay; type: cell-based; parameters: expressed in transfected cells; host or cells: KNRK (Kirsten Murine Sarcoma Virus transformed rat kidney epithelial cells); conditions: β-arrestin accumulation
Procedure: An in vitro assay protocol capable of detecting activation of PAR-2 was additively introduced besides the calcium immobilization assay, and activity of the selected material was measured. First, the PAR-2 inhibitory activity of Compound 98 was measured by using the PathHunter™ β-arrestin GPCR assay kit by DiscoveRx Company, capable of detecting accumulation of β-arrestin, which is an intercellular reaction material primarily generated by activation of PAR-2. As the measurement results, an IC50 value slightly different from the Calcium immobilization assay was observed (Table 1).

nude mice (SKH-1) [4] = experiment: Recovery of acute skin barrier disruption (tape stripping); type: in vivo
Procedure: The recovery rate after acute skin barrier disruption was evaluated on a selected compound by using nude mice. Skins of both abdominal regions of each of 6-8 week aged nude mice (SKH-1) were subjected to repetitive tape stripping, so that transepidermal water loss reached a level of about 35˜40 g/m^2/hr, and then, respective samples were applied thereto. The transepidermal water loss was measured by using the TEWameter (Courage & Khazaka, Germany) immediately before and after skin barrier disruption and 3 hours and 6 hours after application, and the recovery rate of transepidermal water loss was calculated as follows.
(wherein, TEWLa is TEWL value immediately after barrier disruption, TEWLb is TEWL value at the baseline, and TEWLc is TEWL value at the indicated time.)

PAR-2 [5] = target: T1, PAR-2; experiment: Calcium immobilization assay (Calcium-4 assay kit); type: cell-based; parameters: expressed in transfected cells; conditions: HCT-15 PAR-2-overexpressed cell line, activating peptide (AP) as activator
Procedure: In order to evaluate PAR-2 inhibitory activity of the synthesized material, first, an assay system capable of measuring the change in concentration of calcium ions in a cell in real-time was constructed, and then an evaluation was conducted by using the assay system. PAR-2 is a kind of G-protein coupled receptor (GPCR). When the PAR-2 is activated in the cell, phospholipase C-b (PLC-b) was activated to cleave phosphatidylinositol 4,5-bisphosphate (PIP2) into inositol triphosphate (IP3) and diacyl glycerol (DAG). The IP3 generated herein promotes secretion of calcium ions in an endoplasmic reticulum (ER), calcium ion reservoir in the cell, resulting in increasing calcium ions in the cell. An in vitro screening assay system capable of searching materials that may suppress the increase in concentration of calcium ions in the cell due to activation of PAR-2 was constructed based on the existing search results. As a PAR-2 activator used in the experiment, activating peptide (AP) was used. As a reagent for detecting the concentration of calcium ions in the cell, the Calcium-4 assay kit by Molecular Probe Company was used. HCT-15, a PAR-2-overexpressed cell line, was used as a cell line used in the experiment.
The PAR-2 inhibitory activity of the synthesized material was evaluated by using such the protocol, and the assay profile of Compound 98 synthesized in Example 1 was shown in FIG. 1.

(2-methyl-1-m-tolyl-1H-benzo[d]imidazol-5-yl)(piperidin-1-yl)methanone [Compound 98]
Recovery of transepidermal water loss (nude mice (SKH-1) [1]; FIG. 4): promoted recovery
Recovery of moisture content in the stratum corneum (nude mice (SKH-1) [1]; FIG. 5): promoted recovery
PCNA positive keratinocyte (PCNA staining) (nude mice (SKH-1) [1]; FIG. 7): statically significant decrease
Activation of PAR-2 (Flag/Myc double staining image) (PAR-2 [2]): activation of PAR-2 was suppressed
IC50 (PAR-2 [3]): 95.3 µM
Recovery rate of transepidermal water loss after acute skin barrier disruption (nude mice (SKH-1) [4]; 1.0% applied to skin, 3 and 6 hours after application): rapid recovery
Activity in promoting the recovery after skin barrier disruption (nude mice (SKH-1) [4]; overall conclusion, FIG. 3): best activity in promoting the recovery after skin barrier disruption
IC50 (PAR-2 [5]): 243 µM
